Among the data in PMC4709569, “A Novel Naturally Occurring Class I 5-Enolpyruvylshikimate-3-Phosphate Synthase from Janibacter sp. Confers High Glyphosate Tolerance to Rice” (Scientific Reports, 2016) are IC50, Ki and Km values, retold here.

Series [1] deals with T1, aroAE. coli (Escherichia coli, UniProt P0A6D3).
T1 construct: gene aroA; full length; pGEX-6p-1 BamHI/EcoRI, E. coli BL21(DE3); GST tag removed by 3C protease; similar size to aroAJ. sp (47 kDa on gel)
Description: malachite green phosphate release, dose-response fit. The class given is biochemical. From the text: malachite green phosphate release, dose-response fit on aroAE. coli

The target in series [2] is T2, aroAJ. sp (Janibacter sp. YB324, UniProt Z9JWC7BZZ5).
T2 construct: pGEX-6p-1 BamHI/EcoRI, E. coli BL21(DE3); GST tag removed by 3C protease; HTCC2649
Description: malachite green phosphate release, Lineweaver-Burk. It is filed as biochemical. Conditions: competitive with respect to PEP; PEP 0.067-0.5 mM, S3P 1 mM; glyphosate 0-5 mM; 50 mM Hepes pH 7.0, 28 °C, KCl present. An excerpt:
malachite green phosphate release, Lineweaver-Burk on aroAJ. sp

Series [3] deals with T1, aroAE. coli. Kind of series: malachite green phosphate release, Lineweaver-Burk. It is filed as biochemical. To be noted: read-out: Ki ^c. From the text: malachite green phosphate release, Lineweaver-Burk on aroAE. coli
The target in series [4] is T2, aroAJ. sp. Description: malachite green phosphate release, dose-response fit. It is filed as biochemical. To be noted: 1 mM PEP, 1 mM S3P; glyphosate 0.0001-100 mM; 50 mM Hepes pH 7.0, 28 °C, KCl present. An excerpt:
malachite green phosphate release, dose-response fit on aroAJ. sp

The next series relates to C=C(OP(=O)(O)O)C(=O)O. Kind of series: purified protein. To be noted: PEP 0.05-1 mM, S3P fixed 1.0 mM, 50 mM Hepes pH 7.0, 28 °C.
Series [5] concerns O=C(O)C1=C[C@@H](OP(=O)(O)O)[C@@H](O)[C@H](O)C1. Description: purified protein. Conditions: S3P 0.05-1 mM, PEP fixed 1.0 mM, 50 mM Hepes pH 7.0, 28 °C.

T1 sequence (P0A6D3 whole entry): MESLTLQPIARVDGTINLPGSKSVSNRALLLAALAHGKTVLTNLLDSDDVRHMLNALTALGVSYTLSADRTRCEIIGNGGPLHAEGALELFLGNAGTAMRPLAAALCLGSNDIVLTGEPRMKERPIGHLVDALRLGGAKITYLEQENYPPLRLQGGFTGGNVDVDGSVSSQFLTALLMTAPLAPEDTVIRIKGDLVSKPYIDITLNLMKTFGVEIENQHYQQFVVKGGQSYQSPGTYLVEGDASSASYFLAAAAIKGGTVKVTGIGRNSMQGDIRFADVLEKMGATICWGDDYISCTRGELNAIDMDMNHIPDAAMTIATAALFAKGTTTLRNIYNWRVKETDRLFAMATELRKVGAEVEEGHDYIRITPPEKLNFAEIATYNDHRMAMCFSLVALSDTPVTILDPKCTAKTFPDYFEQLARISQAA

As for `O=C(O)CNCP(=O)(O)O` [glyphosate], the half-inhibitory concentration (IC50) turned out to be 40 ± 10 µM against aroAE. coli [1] and 3.6 ± 0.2 mM against aroAJ. sp [4]. In addition, the inhibition constant (Ki) came out at 373 ± 50 µM at aroAJ. sp [2] and 900 ± 90 nM at aroAE. coli [3].

Turning to aroAE. coli (Escherichia coli K-12), the Michaelis constant (Km) in the series on C=C(OP(=O)(O)O)C(=O)O was 60 ± 7 µM; in series [5], 115 ± 10 µM.

As usually defined, the IC50 is the concentration that inhibits the measured activity by half. Read a high IC50 as weaker potency in that assay. For orientation: Ki means the equilibrium dissociation constant of an inhibitor or competing ligand from its target. As usually defined, the Km is the substrate concentration at which the rate is half of its maximum.
